Experimental data published in paper PMC3789677, “Select Dietary Phytochemicals Function as Inhibitors of COX-1 but Not COX-2” (PLoS ONE, 2013).

Tests used:
COX-1 = target: T1, COX-1 (Ovis aries, UniProt P05979); experiment: In vitro COX enzyme assay (COX Inhibitor Screening Kit, Cayman); assay type: biochemical; settings: means ± S.E.M. of 3 independent experiments
T1 construct: purchased Cayman Chemical Company (Ann Arbor, MI)
T1 sequence (P05979 25-600): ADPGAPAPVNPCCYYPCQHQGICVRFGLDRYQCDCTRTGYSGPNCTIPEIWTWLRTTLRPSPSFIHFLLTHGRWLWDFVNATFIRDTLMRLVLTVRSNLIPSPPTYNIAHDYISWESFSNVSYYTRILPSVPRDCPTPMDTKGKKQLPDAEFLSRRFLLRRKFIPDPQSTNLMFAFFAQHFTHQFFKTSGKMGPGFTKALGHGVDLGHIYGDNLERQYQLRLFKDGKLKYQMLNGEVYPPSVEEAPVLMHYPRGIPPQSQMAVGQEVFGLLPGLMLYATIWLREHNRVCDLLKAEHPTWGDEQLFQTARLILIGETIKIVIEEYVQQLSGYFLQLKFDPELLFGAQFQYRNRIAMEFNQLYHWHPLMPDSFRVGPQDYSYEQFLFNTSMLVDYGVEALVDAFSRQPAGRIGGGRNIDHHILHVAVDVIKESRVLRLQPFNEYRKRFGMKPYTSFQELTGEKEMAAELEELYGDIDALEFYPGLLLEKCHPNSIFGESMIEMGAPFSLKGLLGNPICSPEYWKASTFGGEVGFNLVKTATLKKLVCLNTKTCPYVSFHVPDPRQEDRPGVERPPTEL
Protocol: (§1) COX activity was evaluated using a COX Inhibitor Screening Kit from Cayman Chemical Company (Ann Arbor, MI) according to the manufacturer’s instructions.

COX-2 = target: T2, COX-2 (Homo sapiens, UniProt P35354); experiment: as above; assay type: biochemical; settings: means ± S.E.M. of 3 independent experiments
T2 construct: purchased Cayman Chemical Company (Ann Arbor, MI)
T2 sequence (P35354 18-604): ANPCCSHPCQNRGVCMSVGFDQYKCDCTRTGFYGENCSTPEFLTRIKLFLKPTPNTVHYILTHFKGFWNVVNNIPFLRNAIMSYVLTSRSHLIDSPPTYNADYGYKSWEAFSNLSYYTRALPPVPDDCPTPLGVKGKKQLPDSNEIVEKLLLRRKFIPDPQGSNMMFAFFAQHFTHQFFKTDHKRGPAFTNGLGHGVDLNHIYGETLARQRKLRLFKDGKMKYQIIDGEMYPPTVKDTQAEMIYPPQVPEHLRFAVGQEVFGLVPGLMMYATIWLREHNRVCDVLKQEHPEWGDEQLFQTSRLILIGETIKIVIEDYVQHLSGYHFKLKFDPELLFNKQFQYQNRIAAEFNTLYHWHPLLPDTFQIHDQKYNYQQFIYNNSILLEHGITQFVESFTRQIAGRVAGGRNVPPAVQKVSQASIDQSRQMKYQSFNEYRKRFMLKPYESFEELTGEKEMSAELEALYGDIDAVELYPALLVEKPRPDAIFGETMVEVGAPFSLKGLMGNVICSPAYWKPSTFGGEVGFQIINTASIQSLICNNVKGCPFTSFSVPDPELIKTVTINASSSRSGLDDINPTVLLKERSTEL
Protocol: as §1

[1] = system: human umbilical vein endothelial cells (HUVECs); experiment: TXB2 and 6-keto PGF1α assay in HUVECs (ratio as cardiovascular toxicity biomarker); assay type: cell-based; settings: 3 µM
Protocol: Cells (6×10^5) were seeded in a six-well plate in the presence of 10% FBS. At 70-80% confluence, cells were pretreated with vehicle or individual compounds in 1 mL fresh medium for 2 h. […] Supernatant fractions were collected for prostaglandin measurement using enzyme immunoassay kits (Cayman Chemical Company).
Figure 2 Effects of dietary phytochemicals on (A) TXB2 and (B) 6-keto-PGF1α under physiological conditions. HUVECs were seeded in a six-well-plate (6×10^5 cells per well). At 70-80% confluence, 1 mL fresh medium containing DMSO or 3 µM of each individual compound was added and cells were further incubated for 8 h. Supernatant fractions were collected for prostaglandin measurement. (C) The ratio of TXB2/6-keto-PGF1α. Data are presented as means ± S.E.M (n = 4) and the asterisk(s) indicate a significant (*, p < 0.05; ***, p < 0.001) difference versus the vehicle control group.

Structure (SMILES) | IC50 (COX-1) | IC50 (COX-2) | ratio of TXB2/6-keto-PGF1α ([1]; physiological conditions, 8 h (Figure 2)) | ratio of TXB2/6-keto-PGF1α ([1]; pro-inflammatory conditions, 2 h pretreatment then IL-1β 17.5 ng/mL for 8 h (Figure 3))
COc1cc(/C=C/C(=O)CC(=O)/C=C/c2ccc(O)c(OC)c2)ccc1O [Curcumin] | 330 ± 34.3 µM |  |  | 
O=C(O[C@@H]1Cc2c(O)cc(O)cc2O[C@@H]1c1cc(O)c(O)c(O)c1)c1cc(O)c(O)c(O)c1 [EGCG] | 17.9 ± 4.2 µM | 28.6 ± 3.8 µM | most potent inhibitory effect | most potent inhibitory effect
O=c1c(-c2ccc(O)cc2)coc2cc(O)cc(O)c12 [Genistein] | 9.9 ± 2.3 µM | 256 ± 35.7 µM |  | 
O=c1c(O)c(-c2ccc(O)cc2)oc2cc(O)cc(O)c12 [Kaempferol] | 111 ± 7.5 µM | 236 ± 19.7 µM |  | 
Oc1ccc(/C=C/c2cc(O)cc(O)c2)cc1 [Resveratrol] | 3.4 ± 1.1 µM |  |  | 

The next lines start with results.

IC50 (COX-1) | IC50 (COX-2) | Structure (SMILES) | ratio of TXB2/6-keto-PGF1α ([1]; physiological conditions, 8 h (Figure 2)) | ratio of TXB2/6-keto-PGF1α ([1]; pro-inflammatory conditions, 2 h pretreatment then IL-1β 17.5 ng/mL for 8 h (Figure 3))
94.1 ± 12.3 µM |  | O=c1cc(-c2ccc(O)cc2)oc2cc(O)cc(O)c12 [Apigenin] |  | 
> 400 µM | > 400 µM | O=C1C[C@@H](c2ccc(O)cc2)Oc2cc(O)cc(O)c21 [Naringenin] |  | 
> 400 µM | > 400 µM | O=c1c(O)c(-c2ccc(O)c(O)c2)oc2cc(O)cc(O)c12 [Quercetin] |  | 
